{"source": "patent EP2072621A1", "about": "“Solvent tolerant microorganisms” (DSM IP Assets B.V., priority 2007, dated 2009)", "key": {"[1]": {"tested_on": "L. fructivorans ATCC 8288", "settings": "30 degrees C; for Relative growth rate: reference at 0 g/L = 1.00", "experimental": "(§1) MRS medium oxoid (CM0359, Merck KgaA, Germany) was prepared according to manufacturer's instructions and filled out in 50 ml Schott flasks and sterilized at 121 degrees C during 15 minutes. 1 vial of thawed frozen culture was inoculated to 50 ml of this medium and the cultures were subsequently incubated overnight at 30 degrees C standing still or during 2 nights if no clear growth (whitening) had occurred yet. 20 microliter of this culture was inoculated to 180 microliter of microtiter plate (MTP) medium. The pH of this medium was approximately 6.0.\n(§2) After inoculation, every 20 minutes the optical density at 620 nm was measured in the wells of the microtiter plate using a Multiscan Ascent photometer (Thermo Fisher Scientific, Inc.), while the temperature was controlled at 30 degrees C. Total time of measurement was maximally 24 hours. Before measurements were taken, the microtiter plates were shaken for 30 seconds to homogenize any settled biomass.\n(§3) The growth rate was calculated using the exponential phase of the growth curve, based on the optical density measurement. The relative growth rate was calculated using the reference at 0 g/L as 1.00. […] Table 3 Relative growth rate\n(§4) IC50(%) values were determined for the Lactobacilli at 30 degrees C by using a polynomial second order fit through the relative growth rate data and are presented in Table 4. […]"}, "L. plantarum ATCC 8014": {"tested_on": "L. plantarum ATCC 8014", "settings": "30 degrees C; for Relative growth rate: reference at 0 g/L = 1.00", "experimental": "as §1, §2, §3, §4"}, "Lactobacilli": {"tested_on": "Lactobacilli", "settings": "butanol concentration of 2.5 w/v%", "experimental": "as §1, §2, §3, §4"}, "[2]": {"tested_on": "L. casei from commercial rennet", "settings": "30 degrees C; for Relative growth rate: reference at 0 g/L = 1.00", "experimental": "as §1, §2, §3, §4"}, "L. casei ADRIA 85 L121": {"tested_on": "L. casei ADRIA 85 L121", "settings": "30 degrees C; for Relative growth rate: reference at 0 g/L = 1.00", "experimental": "as §1, §2, §3, §4"}, "[3]": {"settings": "polynomial second order fit through the relative growth rate data"}}, "note": "Like-named read-outs stand apart in the source and are kept apart here.", "data": [{"substance": "butanol", "values": [{"measurement": "IC50%", "setting": "[1]; [3]", "result": 2.1, "unit": "w/v %"}, {"measurement": "Relative growth rate", "setting": "[1]; Butanol concentration 0.5 w/v%", "result": 0.94}, {"measurement": "Relative growth rate", "setting": "[1]; Butanol concentration 1 w/v%", "result": 0.89}, {"measurement": "Relative growth rate", "setting": "[1]; Butanol concentration 1.5 w/v%", "result": 0.78}, {"measurement": "Relative growth rate", "setting": "[1]; Butanol concentration 2.5 w/v%", "result": 0.28}, {"measurement": "IC50%", "setting": "L. plantarum ATCC 8014; [3]", "result": 2.2, "unit": "w/v %"}, {"measurement": "Relative growth rate", "setting": "L. plantarum ATCC 8014; Butanol concentration 0.5 w/v%", "result": 0.97}, {"measurement": "Relative growth rate", "setting": "L. plantarum ATCC 8014; Butanol concentration 1 w/v%", "result": 0.90}, {"measurement": "Relative growth rate", "setting": "L. plantarum ATCC 8014; Butanol concentration 1.5 w/v%", "result": 0.77}, {"measurement": "Relative growth rate", "setting": "L. plantarum ATCC 8014; Butanol concentration 2.5 w/v%", "result": 0.37}, {"measurement": "growth in presence of butanol", "setting": "Lactobacilli", "result": "can still grow"}, {"measurement": "IC50%", "setting": "[2]; [3]", "result": 1.9, "unit": "w/v %"}, {"measurement": "Relative growth rate", "setting": "[2]; Butanol concentration 0.5 w/v%", "result": 0.88}, {"measurement": "Relative growth rate", "setting": "[2]; Butanol concentration 1 w/v%", "result": 0.79}, {"measurement": "Relative growth rate", "setting": "[2]; Butanol concentration 1.5 w/v%", "result": 0.68}, {"measurement": "Relative growth rate", "setting": "[2]; Butanol concentration 2.5 w/v%", "result": 0.24}, {"measurement": "IC50%", "setting": "L. casei ADRIA 85 L121; [3]", "result": 2.0, "unit": "w/v %"}, {"measurement": "Relative growth rate", "setting": "L. casei ADRIA 85 L121; Butanol concentration 0.5 w/v%", "result": 0.96}, {"measurement": "Relative growth rate", "setting": "L. casei ADRIA 85 L121; Butanol concentration 1 w/v%", "result": 0.89}, {"measurement": "Relative growth rate", "setting": "L. casei ADRIA 85 L121; Butanol concentration 1.5 w/v%", "result": 0.73}, {"measurement": "Relative growth rate", "setting": "L. casei ADRIA 85 L121; Butanol concentration 2.5 w/v%", "result": 0.21}]}]}
